From ChEMBL document CHEMBL1130377 (J Med Chem, 1997) come the findings set out here.

For the test, the target named is Melatonin receptor (Gallus gallus, UniProt P49288+P51050+P49285). Kind of test: Binding affinity against chicken brain melatonin receptors using 2-[125I]iodomelatonin as radioligand.
Consider `COc1cc2ccccc2c2c1CC(NC(C)=O)CC2` (stereo not drawn), for which the “Log Ki” value is reported as -6.67.

Turning to `COc1cc2c(CCNC(=O)C3CC3)c[nH]c2cc1F`, the “Log Ki” value is given as -8.6.

Take `CC(=O)NCCc1cccc2ccc(O)cc12`: the “Log Ki” value is -7.52.

In the case of `COc1ccc2cccc(CCNC=O)c2c1`, the “Log Ki” value was -8.03.

Take `CCCC(=O)NCCc1c[nH]c2cc(F)c(OC)cc12`: the “Log Ki” value is recorded as -9.85.

On to `CCOc1ccc2ccccc2c1CCNC(=O)CC`, for which the “Log Ki” value is on record as -8.97.

`COc1ccc(-c2ccccc2)cc1CCNC(C)=O`: the “Log Ki” value is -6.54.

For `CCOc1ccc2ccccc2c1CCNC(C)=O`, the “Log Ki” value was -8.45.

`COc1ccc2cccc3c2c1CC(NC(C)=O)C3` (stereo not drawn): the “Log Ki” value is listed as -7.46.

In the case of `CCCNC(=O)NCCc1c[nH]c2ccc(OC)cc12`, the “Log Ki” value is -8.17.

Take `COc1ccc2cccc(CONC(C)=O)c2c1`: the “Log Ki” value is -8.77.

As to `COc1ccc(OC)c(CCNC(=O)C(F)(F)F)c1`, the “Log Ki” value is listed as -6.94.

Take `COc1ccc2ccccc2c1CONC(C)=O`: the “Log Ki” value was -7.25.

In the case of `CCC(=O)NCCc1c(OC)ccc2cc(C)ccc12`, the “Log Ki” value is reported as -7.19.

Turning to `COc1ccc(C)cc1CCNC(=O)C(F)(F)F`, the “Log Ki” value is listed as -6.64.

Consider `COc1cccc(CCNC(=O)C(F)(F)F)c1`, for which the “Log Ki” value is -5.72.

With `CCCC(=O)NCCc1cccc2ccc(OC)cc12`, the “Log Ki” value was -10.53.

For `CCC(=O)NCCc1c(OC)ccc2ccc(OC)cc12`, the “Log Ki” value is given as -10.14.

`COc1ccc(C)cc1CCNC(C)=O`: the “Log Ki” value is recorded as -6.71.

As to `CCC(=O)NCCc1cc(Br)ccc1OC`, the “Log Ki” value was -8.94.

Turning to `COc1ccc2cccc(CCNC(=O)CBr)c2c1`, the “Log Ki” value is recorded as -9.92.

`CC(=O)NCCc1c[nH]c2ccccc12`: the “Log Ki” value is reported as -6.31.

Take `CCCCC(=O)NCCc1cccc2ccc(OC)cc12`: the “Log Ki” value is given as -7.35.

Regarding `CCC(=O)NCCc1cc(OC)cc2ccc(OC)cc12`, the “Log Ki” value was -7.92.

Take `CCCCC(=O)NCCc1cccc2ccccc12`: the “Log Ki” value is recorded as -6.62.

On to `COc1ccc2[nH]cc(CCNC(=O)C3CC3)c2c1`, for which the “Log Ki” value is -8.6.

Regarding `CCC(=O)NCCc1cccc2ccc(OC)cc12`, the “Log Ki” value is given as -9.74.

For the molecule `COc1ccc2cccc(CCNC(=O)C3CC3)c2c1`, the “Log Ki” value is on record as -7.71.

On to `CCOc1ccc2ccccc2c1CCNC(=O)C(F)(F)F`, for which the “Log Ki” value is -8.23.

Turning to `COc1ccc2ccc(OC)c(CCNC(C)=O)c2c1`, the “Log Ki” value is -9.62.

With `COc1ccc2ccc(OC)c(CCNC(=O)C(F)(F)F)c2c1`, the “Log Ki” value is reported as -9.41.

Take `COc1ccc2ccccc2c1CCNC(=O)C(F)(F)F`: the “Log Ki” value is given as -9.26.

For the molecule `COc1ccc(OC)c(CCNC(C)=O)c1`, the “Log Ki” value was -7.15.
